Each structure is given as a SMILES string.

Broadly, the IC50 is the midpoint of a concentration-inhibition curve.

human full-length MKNK1, sequence (Q9BUB5 other isoform, or with tags, fused parts or gaps T344D): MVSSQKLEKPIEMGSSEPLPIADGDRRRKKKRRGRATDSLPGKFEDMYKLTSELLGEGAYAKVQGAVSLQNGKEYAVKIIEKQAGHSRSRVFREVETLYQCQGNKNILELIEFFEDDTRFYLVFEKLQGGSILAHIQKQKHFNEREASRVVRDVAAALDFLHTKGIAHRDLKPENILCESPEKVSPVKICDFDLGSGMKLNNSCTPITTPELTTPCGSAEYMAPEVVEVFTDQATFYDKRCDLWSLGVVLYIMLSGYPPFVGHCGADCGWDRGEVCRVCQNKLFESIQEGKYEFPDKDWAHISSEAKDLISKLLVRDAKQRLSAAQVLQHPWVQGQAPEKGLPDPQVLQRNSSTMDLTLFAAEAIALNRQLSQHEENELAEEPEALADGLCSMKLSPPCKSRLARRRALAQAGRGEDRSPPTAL

This experiment concerns the target human full-length MKNK1 (Homo sapiens (Human), UniProt Q9BUB5, T344D). The experiment can be described thus: MKNK1 kinase high ATP assay (TR-FRET). The settings on record: high ATP (2 mM), 15 min preincubation with enzyme; read-out: MKNK1 IC50. The format is biochemical. The essentials:
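GST-tagged full-length MKNK1 (aa 1–424, T344D; insect-cell expressed) preincubated 15 min with compound, then reacted 30 min at 22 °C with 2 mM ATP and 0.06 μM biotinylated peptide (final) in HEPES pH 7.5 buffer. Phosphopeptide detected by TR-FRET 665/620 ratio, normalized to no-inhibitor and no-enzyme controls.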
On the technique in general: In TR-FRET formats the signal depends on donor and acceptor labels being close together.
For the molecule `O=C([C@H]1CCc2c(sc3ncnc(Nc4cc5ccnn5cc4Cl)c23)C1)N1C[C@H]2C[C@@H]1CO2` [Example 75, (7S)-4-[(6-Chloropyrazolo[1,5-a]pyridin-5-yl)amino]-5,6,7,8-tetrahydro[1]benzothieno[2,3-d]pyrimidin-7-yl[(1R,4R)-2-oxa-5-azabicyclo[2.2.1]hept-5-yl]methanone], the half-inhibitory concentration (IC50) is 56 nM.

In the case of `C[C@H]1COCCN1C(=O)[C@H]1CCc2c(sc3ncnc(Nc4cc5ccnn5cc4Cl)c23)C1` [Example 76, (7S)-4-[(6-Chloropyrazolo[1,5-a]pyridin-5-yl)amino]-5,6,7,8-tetrahydro[1]benzothieno[2,3-d]pyrimidin-7-yl[(3S)-3-methylmorpholin-4-yl]methanone], the 50% inhibitory concentration (IC50) came out at 7 nM.

As for `C[C@@H]1COCCN1C(=O)[C@H]1CCc2c(sc3ncnc(Nc4cc5ccnn5cc4Cl)c23)C1` [Example 77, (7S)-4-[(6-Chloropyrazolo[1,5-a]pyridin-5-yl)amino]-5,6,7,8-tetrahydro[1]benzothieno[2,3-d]pyrimidin-7-yl[(3R)-3-methylmorpholin-4-yl]methanone], the IC50 came out at 21 nM.

For `CNC(=O)[C@H]1CCc2c(sc3ncnc(Nc4cc5ccnn5cc4OC)c23)C1` [Example 78, (7S)-4-[(6-Methoxypyrazolo[1,5-a]pyridin-5-yl)amino]-N-methyl-5,6,7,8-tetrahydro[1]benzothieno[2,3-d]pyrimidine-7-carboxamide], the IC50 amounted to 5 nM.

On to `COc1cn2nccc2cc1Nc1ncnc2sc3c(c12)CC[C@H](C(=O)NCC(F)F)C3` [Example 79, (7S)—N-(2,2-Difluoroethyl)-4-[(6-methoxypyrazolo[1,5-a]pyridin-5-yl)amino]-5,6,7,8-tetrahydro[1]benzothieno[2,3-d]pyrimidine-7-carboxamide], for which the IC50 was determined as 3 nM.

Turning to `COc1cn2nccc2cc1Nc1ncnc2sc3c(c12)CC[C@H](C(=O)NCCC(F)(F)F)C3` [Example 80, (7S)-4-[(6-Methoxypyrazolo[1,5-a]pyridin-5-yl)amino]-N-(3,3,3-trifluoropropyl)-5,6,7,8-tetrahydro[1]benzothieno[2,3-d]pyrimidine-7-carboxamide], the IC50 came to 3 nM.

Take `COc1cn2nccc2cc1Nc1ncnc2sc3c(c12)CC[C@H](C(=O)NCC(C)(C)O)C3` [Example 81, (7S)—N-(2-Hydroxy-2-methylpropyl)-4-[(6-methoxypyrazolo[1,5-a]pyridin-5-yl)amino]-5,6,7,8-tetrahydro[1]benzothieno[2,3-d]pyrimidine-7-carboxamide]: the IC50 was found to be 2 nM.

As to `COc1cn2nccc2cc1Nc1ncnc2sc3c(c12)CC[C@H](C(=O)NCCN(C)C)C3` [Example 82, (7S)—N-[2-(Dimethylamino)ethyl]-4-[(6-methoxypyrazolo[1,5-a]pyridin-5-yl)amino]-5,6,7,8-tetrahydro[1]benzothieno[2,3-d]pyrimidine-7-carboxamide], the half-inhibitory concentration (IC50) stood at 3 nM.

For `COc1cn2nccc2cc1Nc1ncnc2sc3c(c12)CC[C@H](C(=O)NCCO)C3` [Example 83, (7S)—N-(2-Hydroxyethyl)-4-[(6-methoxypyrazolo[1,5-a]pyridin-5-yl)amino]-5,6,7,8-tetrahydro[1]benzothieno[2,3-d]pyrimidine-7-carboxamide], the half-inhibitory concentration (IC50) is 3 nM.

With `COCCNC(=O)[C@H]1CCc2c(sc3ncnc(Nc4cc5ccnn5cc4OC)c23)C1` [Example 84, (7S)—N-(2-Methoxyethyl)-4-[(6-methoxypyrazolo[1,5-a]pyridin-5-yl)amino]-5,6,7,8-tetrahydro[1]benzothieno[2,3-d]pyrimidine-7-carboxamide], the IC50 is 3 nM.

With `COc1cn2nccc2cc1Nc1ncnc2sc3c(c12)CC[C@H](C(=O)NC(C)(C)C)C3` [Example 86, (7S)—N-tert-Butyl-4-[(6-methoxypyrazolo[1,5-a]pyridin-5-yl)amino]-5,6,7,8-tetrahydro[1]benzothieno[2,3-d]pyrimidine-7-carboxamide], the IC50 amounted to 4 nM.

Take `COc1cn2nccc2cc1Nc1ncnc2sc3c(c12)CC[C@H](C(=O)NC1(C)CCC1)C3` [Example 87, (7S)-4-[(6-Methoxypyrazolo[1,5-a]pyridin-5-yl)amino]-N-(1-methylcyclobutyl)-5,6,7,8-tetrahydro[1]benzothieno[2,3-d]pyrimidine-7-carboxamide]: the half-inhibitory concentration (IC50) amounted to 4 nM.

With `COc1cn2nccc2cc1Nc1ncnc2sc3c(c12)CC[C@H](C(=O)Nc1ccc(F)cc1)C3` [Example 88, (7S)—N-(4-Fluorophenyl)-4-[(6-methoxypyrazolo[1,5-a]pyridin-5-yl)amino]-5,6,7,8-tetrahydro[1]benzothieno[2,3-d]pyrimidine-7-carboxamide], the 50% inhibitory concentration (IC50) stood at 8 nM.

In the case of `COc1cn2nccc2cc1Nc1ncnc2sc3c(c12)CC[C@H](C(=O)Nc1cccc(Cl)c1)C3` [Example 89, (7S)—N-(3-Chlorophenyl)-4-[(6-methoxypyrazolo[1,5-a]pyridin-5-yl)amino]-5,6,7,8-tetrahydro[1]benzothieno[2,3-d]pyrimidine-7-carboxamide], the IC50 worked out at 24 nM.

As to `COc1cn2nccc2cc1Nc1ncnc2sc3c(c12)CC[C@H](C(=O)Nc1ccc(Cl)c(Cl)c1)C3` [Example 90, (7S)—N-(3,4-Dichlorophenyl)-4-[(6-methoxypyrazolo[1,5-a]pyridin-5-yl)amino]-5,6,7,8-tetrahydro[1]benzothieno[2,3-d]pyrimidine-7-carboxamide], the IC50 came to 235 nM.

Regarding `COc1cn2nccc2cc1Nc1ncnc2sc3c(c12)CC[C@H](C(=O)Nc1ccc(F)c(Cl)c1)C3` [Example 91, (7S)—N-(3-Chloro-4-fluorophenyl)-4-[(6-methoxypyrazolo[1,5-a]pyridin-5-yl)amino]-5,6,7,8-tetrahydro[1]benzothieno[2,3-d]pyrimidine-7-carboxamide], the IC50 came to 48 nM.

In the case of `COc1cn2nccc2cc1Nc1ncnc2sc3c(c12)CC[C@H](C(=O)Nc1cccc(F)c1)C3` [Example 92, (7S)—N-(3-Fluorophenyl)-4-[(6-methoxypyrazolo[1,5-a]pyridin-5-yl)amino]-5,6,7,8-tetrahydro[1]benzothieno[2,3-d]pyrimidine-7-carboxamide], the IC50 was 7 nM.

For the molecule `COc1cn2nccc2cc1Nc1ncnc2sc3c(c12)CC[C@H](C(=O)Nc1ccc2[nH]ccc2c1)C3` [Example 93, (7S)—N-(1H-Indol-5-yl)-4-[(6-methoxypyrazolo[1,5-a]pyridin-5-yl)amino]-5,6,7,8-tetrahydro[1]benzothieno[2,3-d]pyrimidine-7-carboxamide], the half-maximal inhibitory concentration (IC50) is 3 nM.

With `CCN(C)C(=O)[C@H]1CCc2c(sc3ncnc(Nc4cc5ccnn5cc4OC)c23)C1` [Example 94, (7S)—N-Ethyl-4-[(6-methoxypyrazolo[1,5-a]pyridin-5-yl)amino]-N-methyl-5,6,7,8-tetrahydro[1]benzothieno[2,3-d]pyrimidine-7-carboxamide], the 50% inhibitory concentration (IC50) turned out to be 1 nM.

As to `COc1cn2nccc2cc1Nc1ncnc2sc3c(c12)CC[C@H](C(=O)N(C)CCC(F)(F)F)C3` [Example 96, (7S)-4-[(6-Methoxypyrazolo[1,5-a]pyridin-5-yl)amino]-N-methyl-N-(3,3,3-trifluoropropyl)-5,6,7,8-tetrahydro[1]benzothieno[2,3-d]pyrimidine-7-carboxamide], the IC50 worked out at 7 nM.

The record behind these values is US10487092B2, “Pyrazolopyridinamines as MKNK1 and MKNK2 inhibitors” (BAYER PHARMA AKTIENGESELLSCHAFT, priority 2014, dated 2019).
